Results reported in paper PMC5218480 (PLoS ONE, 2017).

System: MV-4-11 cells
Assay: Gene expression microarray analysis (Affymetrix PrimeView) and GSEA
Type: cell-based, human
Set-up: RFU PODN (11730768_x_at) / Fold change /veh PODN (11730768_x_at) / RFU LINC00158 (11744669_a_at) / Fold change /veh LINC00158 (11744669_a_at) / RFU DUSP10 (11751237_a_at) / Fold change /veh DUSP10 (11751237_a_at) / RFU ID3 (11757404_x_at) / Fold change /veh ID3 (11757404_x_at) / RFU PLEKHG5 (11737974_s_at) / Fold change /veh PLEKHG5 (11737974_s_at) / RFU LRRC4B (11730491_at) / Fold change /veh LRRC4B (11730491_at) / RFU GIMAP4 (11747438_a_at) / Fold change /veh GIMAP4 (11747438_a_at) / RFU KRT8 (11758183_x_at) / Fold change /veh KRT8 (11758183_x_at) / RFU CNN1 (11734310_a_at) / Fold change /veh CNN1 (11734310_a_at) / RFU VPS37D (11726825_at) / Fold change /veh VPS37D (11726825_at) / RFU C10orf10 (11716522_x_at) / Fold change /veh C10orf10 (11716522_x_at) / RFU KIR2DL2 /// KIR2DL4 /// KIR2DL5A /// KIR2DL5B /// KIR2DS1 /// KIR2DS2 /// KIR2DS3 /// KIR2DS4 /// KIR3DL3 /// KIR3DL3 /// KIR3DS1 (11738374_at) / Fold change /veh KIR2DL2 /// KIR2DL4 /// KIR2DL5A /// KIR2DL5B /// KIR2DS1 /// KIR2DS2 /// KIR2DS3 /// KIR2DS4 /// KIR3DL3 /// KIR3DL3 /// KIR3DS1 (11738374_at) / RFU C1QL1 (11718748_at) / Fold change /veh C1QL1 (11718748_at) / RFU TMPRSS4 (11747572_a_at) / Fold change /veh TMPRSS4 (11747572_a_at) / RFU HAMP (11756126_x_at) / Fold change /veh HAMP (11756126_x_at) / RFU RNFT2 (11725882_a_at) / Fold change /veh RNFT2 (11725882_a_at) / RFU NR4A2 (11747474_a_at) / Fold change /veh NR4A2 (11747474_a_at) / RFU ABCC12 (11746883_a_at) / Fold change /veh ABCC12 (11746883_a_at) / RFU TMEM136 (11760407_x_at) / Fold change /veh TMEM136 (11760407_x_at) / RFU CLDN22 /// WWC2 (11732394_at) / Fold change /veh CLDN22 /// WWC2 (11732394_at) / RFU HLA-DPB1 (11760878_x_at) / Fold change /veh HLA-DPB1 (11760878_x_at) / RFU SPINT1 (11716480_a_at) / Fold change /veh SPINT1 (11716480_a_at) / RFU GAP43 (11754022_s_at) / Fold change /veh GAP43 (11754022_s_at) / RFU A4GNT (11735810_at) / Fold change /veh A4GNT (11735810_at) / RFU PRB3 (11715151_x_at) / Fold change /veh PRB3 (11715151_x_at) / RFU TUBB4B (11761932_at) / Fold change /veh TUBB4B (11761932_at) / RFU CAPN14 (11732068_a_at) / Fold change /veh CAPN14 (11732068_a_at) / RFU TMCC2 (11721928_a_at) / Fold change /veh TMCC2 (11721928_a_at) / RFU IRGQ (11745062_a_at) / Fold change /veh IRGQ (11745062_a_at) / RFU FAM174B (11720279_a_at) / Fold change /veh FAM174B (11720279_a_at) / RFU TMPRSS4 (11748680_a_at) / Fold change /veh TMPRSS4 (11748680_a_at) / RFU FAM212B (11763350_a_at) / Fold change /veh FAM212B (11763350_a_at) / RFU PLEKHG5 (11743358_a_at) / Fold change /veh PLEKHG5 (11743358_a_at) / RFU ZSCAN30 (11745921_a_at) / Fold change /veh ZSCAN30 (11745921_a_at) / RFU CMKLR1 (11741424_a_at) / Fold change /veh CMKLR1 (11741424_a_at) / RFU LOC101060620 /// MAPK8IP1 (11723275_at) / Fold change /veh LOC101060620 /// MAPK8IP1 (11723275_at) / RFU SPTSSB (11747773_x_at) / Fold change /veh SPTSSB (11747773_x_at) / RFU PRSS12 (11739890_at) / Fold change /veh PRSS12 (11739890_at) / RFU BIN1 (11741810_x_at) / Fold change /veh BIN1 (11741810_x_at) / RFU WNT11 (11732464_a_at) / Fold change /veh WNT11 (11732464_a_at) / RFU C10orf10 (11716521_a_at) / Fold change /veh C10orf10 (11716521_a_at) / RFU C5orf56 (11738089_at) / Fold change /veh C5orf56 (11738089_at) / RFU CYB561 (11721691_x_at) / Fold change /veh CYB561 (11721691_x_at) / RFU ANKRD19P (11752326_a_at) / Fold change /veh ANKRD19P (11752326_a_at) / RFU OR2T12 /// OR2T33 /// OR2T8 (11738714_s_at) / Fold change /veh OR2T12 /// OR2T33 /// OR2T8 (11738714_s_at) / RFU VCAN (11748164_a_at) / Fold change /veh VCAN (11748164_a_at) / RFU JSRP1 (11732532_at) / Fold change /veh JSRP1 (11732532_at) / RFU KRTAP10-11 (11738290_x_at) / Fold change /veh KRTAP10-11 (11738290_x_at) / RFU MYO3A (11730013_a_at) / Fold change /veh MYO3A (11730013_a_at) / RFU EBF3 (11725865_a_at) / Fold change /veh EBF3 (11725865_a_at) / RFU CAMK2N1 (11719241_x_at) / Fold change /veh CAMK2N1 (11719241_x_at) / RFU C5orf56 (11738088_a_at) / Fold change /veh C5orf56 (11738088_a_at) / RFU OLFML3 (11715873_a_at) / Fold change /veh OLFML3 (11715873_a_at) / RFU LOC100653217 /// NTM (11731650_a_at) / Fold change /veh LOC100653217 /// NTM (11731650_a_at) / RFU MAPK11 (11762145_a_at) / Fold change /veh MAPK11 (11762145_a_at) / RFU FIZ1 (11724087_x_at) / Fold change /veh FIZ1 (11724087_x_at) / RFU OASL (11726364_x_at) / Fold change /veh OASL (11726364_x_at) / RFU SOX15 (11748057_x_at) / Fold change /veh SOX15 (11748057_x_at) / RFU CD79A (11719716_a_at) / Fold change /veh CD79A (11719716_a_at) / RFU HIST1H1D (11736915_at) / Fold change /veh HIST1H1D (11736915_at) / RFU CASKIN2 (11723855_a_at) / Fold change /veh CASKIN2 (11723855_a_at) / RFU LOC730098 (11760151_x_at) / Fold change /veh LOC730098 (11760151_x_at) / RFU OR4N2 (11742367_at) / Fold change /veh OR4N2 (11742367_at) / RFU PRRT2 (11749266_a_at) / Fold change /veh PRRT2 (11749266_a_at) / RFU SNX32 (11753110_a_at) / Fold change /veh SNX32 (11753110_a_at) / RFU CDHR5 (11726645_a_at) / Fold change /veh CDHR5 (11726645_a_at) / RFU RCAN1 (11760418_a_at) / Fold change /veh RCAN1 (11760418_a_at) / RFU FAM167A (11723789_a_at) / Fold change /veh FAM167A (11723789_a_at) / RFU FAM26E (11764081_at) / Fold change /veh FAM26E (11764081_at) / RFU ISYNA1 (11749810_s_at) / Fold change /veh ISYNA1 (11749810_s_at) / RFU ACY1 (11761880_at) / Fold change /veh ACY1 (11761880_at) / RFU 11764098_at / Fold change /veh 11764098_at / RFU SAMD14 (11745864_x_at) / Fold change /veh SAMD14 (11745864_x_at) / RFU NPB (11741838_a_at) / Fold change /veh NPB (11741838_a_at) / RFU TMPRSS6 (11731388_a_at) / Fold change /veh TMPRSS6 (11731388_a_at) / RFU KRTAP10-2 (11738614_at) / Fold change /veh KRTAP10-2 (11738614_at) / RFU ARHGAP8 /// PRR5-ARHGAP8 (11727945_x_at) / Fold change /veh ARHGAP8 /// PRR5-ARHGAP8 (11727945_x_at) / RFU KRTAP5-7 /// NADSYN1 (11734609_at) / Fold change /veh KRTAP5-7 /// NADSYN1 (11734609_at) / RFU RASL12 (11751679_a_at) / Fold change /veh RASL12 (11751679_a_at) / RFU CDKN2B (11736163_a_at) / Fold change /veh CDKN2B (11736163_a_at) / RFU PRF1 (11729649_at) / Fold change /veh PRF1 (11729649_at) / RFU, ZNF638 /// ZNF638-IT1 / Fold change vs veh, ZNF638 /// ZNF638-IT1 / RFU, PANK3 / Fold change vs veh, PANK3 / RFU, SH3YL1 / Fold change vs veh, SH3YL1 / RFU, ZEB2 / Fold change vs veh, ZEB2 / RFU, NRIP1 / Fold change vs veh, NRIP1 / RFU, PTTG1IP / Fold change vs veh, PTTG1IP / RFU, CAPN2 / Fold change vs veh, CAPN2 / RFU, MED14 / Fold change vs veh, MED14 / RFU, SNORA58 / Fold change vs veh, SNORA58 / RFU, C1orf63 / Fold change vs veh, C1orf63 / RFU, LRRFIP1 / Fold change vs veh, LRRFIP1 / RFU, NDUFAF7 / Fold change vs veh, NDUFAF7 / RFU, SLC12A2 / Fold change vs veh, SLC12A2 / RFU, IBTK / Fold change vs veh, IBTK / RFU, ESF1 / Fold change vs veh, ESF1 / Fold change vs veh, TMEM50B / RFU, TAOK1 / Fold change vs veh, TAOK1 / RFU, ACBD3 / Fold change vs veh, ACBD3 / RFU, TMA16 / Fold change vs veh, TMA16 / RFU, RWDD3 / Fold change vs veh, RWDD3 / RFU, BCAT1 / Fold change vs veh, BCAT1 / RFU, EDEM3 / Fold change vs veh, EDEM3 / RFU, TMEM33 / Fold change vs veh, TMEM33 / RFU, WDR75 / Fold change vs veh, WDR75 / RFU, AHCTF1 / Fold change vs veh, AHCTF1 / RFU, TFRC / Fold change vs veh, TFRC / RFU, ZDHHC17 / Fold change vs veh, ZDHHC17 / RFU, NOM1 / Fold change vs veh, NOM1 / RFU, ARL8B / Fold change vs veh, ARL8B / RFU, ZBTB11 / Fold change vs veh, ZBTB11 / RFU, TAMM41 / Fold change vs veh, TAMM41 / RFU, KIAA1704 /// LOC100996395 / Fold change vs veh, KIAA1704 /// LOC100996395 / RFU, ING1 / Fold change vs veh, ING1 / RFU, TRMT61B / Fold change vs veh, TRMT61B / RFU, FUBP3 / Fold change vs veh, FUBP3 / RFU, TP53 / Fold change vs veh, TP53 / RFU, TNKS2 / Fold change vs veh, TNKS2 / RFU, ZFP14 / Fold change vs veh, ZFP14 / RFU, ACTR2 / Fold change vs veh, ACTR2 / RFU, PPP3R1 / Fold change vs veh, PPP3R1 / RFU, PIK3R1 / Fold change vs veh, PIK3R1 / RFU, HNRNPA1 / Fold change vs veh, HNRNPA1 / RFU, RNF170 / Fold change vs veh, RNF170 / RFU, ZNF28 / Fold change vs veh, ZNF28 / RFU, RNGTT / Fold change vs veh, RNGTT / RFU, OGT / Fold change vs veh, OGT / RFU, BRD1 / Fold change vs veh, BRD1 / RFU, MARS / Fold change vs veh, MARS / RFU, ZNF655 / Fold change vs veh, ZNF655 / RFU, FAHD1 / Fold change vs veh, FAHD1 / RFU, BDP1 / Fold change vs veh, BDP1 / RFU, LRRCC1 / Fold change vs veh, LRRCC1 / RFU, ARID1A / Fold change vs veh, ARID1A / RFU, ZNF146 / Fold change vs veh, ZNF146 / RFU, ZNF330 / Fold change vs veh, ZNF330 / RFU, GPN3 / Fold change vs veh, GPN3 / RFU, C9orf123 / Fold change vs veh, C9orf123 / RFU, N4BP2L2 / Fold change vs veh, N4BP2L2 / RFU, ARFIP1 / Fold change vs veh, ARFIP1 / RFU, FAM179B / Fold change vs veh, FAM179B / RFU, BCL10 / Fold change vs veh, BCL10 / RFU, UHRF1BP1L / Fold change vs veh, UHRF1BP1L / RFU, BET1 / Fold change vs veh, BET1 / RFU, CNOT2 / Fold change vs veh, CNOT2 / RFU, ZNF268 / Fold change vs veh, ZNF268 / Fold change vs veh, ZNF507 / RFU, DGCR2 / Fold change vs veh, DGCR2 / RFU, WDSUB1 / Fold change vs veh, WDSUB1 / Fold change vs veh, HSP90B1 /// MIR3652 / RFU, ADSS / Fold change vs veh, ADSS / RFU, GK / Fold change vs veh, GK / RFU, ZNF148 / Fold change vs veh, ZNF148 / RFU, TAF9 / Fold change vs veh, TAF9 / RFU, SLC1A5 / Fold change vs veh, SLC1A5 / RFU, SLMO2 / Fold change vs veh, SLMO2 / RFU, ABCC4 / Fold change vs veh, ABCC4 / RFU, LOC101060439 /// RAP1B / Fold change vs veh, LOC101060439 /// RAP1B / RFU, RFX7 / Fold change vs veh, RFX7 / RFU, GTPBP10 / Fold change vs veh, GTPBP10 / RFU, CNEP1R1 / Fold change vs veh, CNEP1R1 / RFU, BIVM-ERCC5 /// ERCC5 / Fold change vs veh, BIVM-ERCC5 /// ERCC5 / RFU, ILF3 / Fold change vs veh, ILF3 / RFU 11762660_at / Fold change /veh 11762660_at / RFU VCAN (11757783_s_at) / Fold change /veh VCAN (11757783_s_at) / RFU DDX43 (11728927_at) / Fold change /veh DDX43 (11728927_at) / RFU KRT8 (11758188_x_at) / Fold change /veh KRT8 (11758188_x_at) / RFU NKD1 (11759106_at) / Fold change /veh NKD1 (11759106_at) / RFU SRD5A1 (11742802_a_at) / Fold change /veh SRD5A1 (11742802_a_at) / RFU TPSAB1 /// TPSB2 (11721975_s_at) / Fold change /veh TPSAB1 /// TPSB2 (11721975_s_at) / RFU GSTM3 (11746129_a_at) / Fold change /veh GSTM3 (11746129_a_at) / RFU IL23R (11737362_x_at) / Fold change /veh IL23R (11737362_x_at) / RFU TMEM51 (11727254_a_at) / Fold change /veh TMEM51 (11727254_a_at) / RFU PIWIL2 (11732686_x_at) / Fold change /veh PIWIL2 (11732686_x_at) / RFU ORM1 (11744905_x_at) / Fold change /veh ORM1 (11744905_x_at) / RFU CCDC152 (11743942_at) / Fold change /veh CCDC152 (11743942_at) / RFU ECM1 (11717891_a_at) / Fold change /veh ECM1 (11717891_a_at) / RFU IL23R (11748794_a_at) / Fold change /veh IL23R (11748794_a_at) / RFU TNFAIP8L3 (11732012_x_at) / Fold change /veh TNFAIP8L3 (11732012_x_at) / RFU MBOAT4 (11741988_at) / Fold change /veh MBOAT4 (11741988_at) / RFU 11764193_at / Fold change /veh 11764193_at / RFU TMEM53 (11763286_at) / Fold change /veh TMEM53 (11763286_at) / RFU MAGEB2 (11727129_at) / Fold change /veh MAGEB2 (11727129_at) / RFU TMEM200A (11744735_a_at) / Fold change /veh TMEM200A (11744735_a_at) / RFU CCDC152 (11751479_a_at) / Fold change /veh CCDC152 (11751479_a_at) / RFU FAM211A (11726209_a_at) / Fold change /veh FAM211A (11726209_a_at) / RFU RGS16 (11746705_a_at) / Fold change /veh RGS16 (11746705_a_at) / RFU VCAN (11755009_s_at) / Fold change /veh VCAN (11755009_s_at) / RFU RHOB (11743442_s_at) / Fold change /veh RHOB (11743442_s_at) / RFU RGS16 (11720943_a_at) / Fold change /veh RGS16 (11720943_a_at) / RFU RGS16 (11720944_at) / Fold change /veh RGS16 (11720944_at) / RFU, VPS4B / Fold change vs veh, VPS4B / RFU, CREB1 / Fold change vs veh, CREB1 / RFU, DNAJC13 / Fold change vs veh, DNAJC13 / RFU, GNAQ / Fold change vs veh, GNAQ / RFU, CDK5R1 / Fold change vs veh, CDK5R1 / RFU, ZRANB3 / Fold change vs veh, ZRANB3 / RFU, CUL4A / Fold change vs veh, CUL4A / RFU, CCNY / Fold change vs veh, CCNY / RFU, UFL1 / Fold change vs veh, UFL1 / RFU, COG3 / Fold change vs veh, COG3 / RFU, DIAPH2 / Fold change vs veh, DIAPH2 / RFU, SKA2 / Fold change vs veh, SKA2 / RFU, AFF3 / Fold change vs veh, AFF3 / RFU, LMF1 / Fold change vs veh, LMF1 / RFU, IPO11 / Fold change vs veh, IPO11 / RFU, DFFB / Fold change vs veh, DFFB / RFU, FOXP1 / Fold change vs veh, FOXP1 / RFU, CARD8 / Fold change vs veh, CARD8 / RFU, STRN3 / Fold change vs veh, STRN3 / RFU, ADK / Fold change vs veh, ADK / RFU, RASSF2 / Fold change vs veh, RASSF2 / RFU, WIPF1 / Fold change vs veh, WIPF1 / RFU, LARP1B / Fold change vs veh, LARP1B / RFU, RASA1 / Fold change vs veh, RASA1 / RFU, RB1 / Fold change vs veh, RB1 / RFU, PPFIA1 / Fold change vs veh, PPFIA1 / RFU, MAT2A / Fold change vs veh, MAT2A / RFU, CCT5 / Fold change vs veh, CCT5 / RFU, WDR92 / Fold change vs veh, WDR92 / RFU, CUX1 / Fold change vs veh, CUX1 / RFU, TTC7A / Fold change vs veh, TTC7A / RFU, TMEM135 / Fold change vs veh, TMEM135 / RFU, DEPTOR / Fold change vs veh, DEPTOR / RFU, CPM / Fold change vs veh, CPM / RFU, DNAJB6 / Fold change vs veh, DNAJB6 / RFU, CACNA2D3 / Fold change vs veh, CACNA2D3 / RFU, DTX4 / Fold change vs veh, DTX4 / RFU, TFCP2 / Fold change vs veh, TFCP2 / RFU, GMCL1 /// GMCL1P1 / Fold change vs veh, GMCL1 /// GMCL1P1 / RFU, AEBP2 / Fold change vs veh, AEBP2 / RFU, SNHG1 /// SNORD22 /// SNORD25 /// SNORD26 /// SNORD27 /// SNORD28 /// SNORD29 /// SNORD31 / Fold change vs veh, SNHG1 /// SNORD22 /// SNORD25 /// SNORD26 /// SNORD27 /// SNORD28 /// SNORD29 /// SNORD31 / Fold change (Aza/veh), C12orf56 (ProbeSet 11735607_a_at) / Fold change (ACY-1035/veh), C12orf56 (ProbeSet 11735607_a_at) / Fold change (Aza/veh), FGFR1OP (ProbeSet 11751329_s_at) / Fold change (ACY-1035/veh), FGFR1OP (ProbeSet 11751329_s_at) / Fold change (Aza/veh), VPS36 (ProbeSet 11739960_a_at) / Fold change (ACY-1035/veh), VPS36 (ProbeSet 11739960_a_at) / RFU SYPL1 (11715823_x_at) / Fold change /veh SYPL1 (11715823_x_at) / RFU IGFBP7 (11715501_s_at) / Fold change /veh IGFBP7 (11715501_s_at) / RFU REEP3 (11722064_at) / Fold change /veh REEP3 (11722064_at) / RFU IGLL1 (11728026_x_at) / Fold change /veh IGLL1 (11728026_x_at): dose or concentration left out as unconfirmed
Conditions: ProbeSet 11741070_a_at; LIST B

SMILES: Nc1ccc(-c2cccs2)cc1NC(=O)c1ccc2c(c1)cc(C1CC1)n2CCN1CCOCC1 [ACY-1035]
- RFU, ZNF146: 2312.59 RFU
